In patent US20220106296A1, “CYANOTRIAZOLE COMPOUNDS AND USES THEREOF” (Novartis AG, priority 2018, published 2022):
pIC50: −log10 of the molar value.

Experiments:
[1] = test system: T. b. brucei Lister427 bloodstream form parasites; experiment: T. b. brucei growth inhibition assay (CellTiter-Glo, 48 hours); assay type: cell-based; conditions: Trypanosoma brucei
Excerpt: Bloodstream form of T. b. brucei Lister427 strain was obtained from the Genomics Institute of the Novartis Research Foundation. This strain was used for carrying out growth inhibition and kill kinetics assays. T. b. gambiense STIB930 and T. b. rhodesiense STIB900 were obtained from Swiss TPH, were used for carrying out the growth inhibition assays.
Bloodstream form T. b. brucei Lister 427 parasites were continuously passaged in HMI-9 medium formulated from IMDM medium (Invitrogen), 10% heat-inactivated fetal bovine serum (FBS), 10% Serum Plus medium supplement (SAFC Biosciences), 1 mM hypoxanthine (Sigma-Aldrich), 50 μM bathocuproine disulfonic acid (Sigma-Aldrich), 1.5 mM cysteine (Sigma-Aldrich), 1 mM pyruvic acid (Sigma-Aldrich), 39 μg/mL thymidine (Sigma-Aldrich), and 14 μL/L beta-mercapthoethanol (Sigma-Aldrich); all concentrations of added components refer to that in complete HMI-9 medium. The parasites were cultured in 10 mL of HMI-9 medium in T75 CELL-STAR tissue culture flasks at 37° C./5% CO2.
To determine compound growth inhibitory potency on T. b. brucei Lister427 bloodstream form parasites, 200 nL of 10-point, 3 fold serially diluted compounds in DMSO were transferred to the wells of white, solid bottom 384-well plates (Greiner Bio-One) by either Echo 555 acoustic liquid handling system or Mosquito. Then, 1×10^4 of T. b. brucei parasites in 40 μL of HMI-9 medium were added to each well, and the plates were incubated for 48 hours at 37° C. in 5% CO2 incubators. Parasite numbers in individual plate wells were determined through quantification of intracellular ATP amount. The CellTiter-Glo luminescent cell viability reagent (Promega) was added to plate wells, and ATP-dependent luminescence signal was measured on Tecan M1000 plate Reader after 30 min incubation. Luminescence values in wells with compounds were divided by the average luminescence value of the plate DMSO controls, and used for calculation of compound IC50 values.

[2] = test system: intracellular T. cruzi amastigotes; experiment: T. cruzi amastigote growth inhibition assay (NIH 3T3 host cells, β-galactosidase readout); assay type: cell-based; conditions: Trypanosoma cruzi, NIH3T3, read-out: (c) T.c.* IC50
Experimental: NIH 3T3 fibroblast cells (ATCC) were maintained in RPMI-1640 medium (Life Technologies) supplemented with 10% heat-inactivated fetal bovine serum and 100 IU penicillin/100 μg/ml streptomycin at 37° C./5% CO2. T. cruzi Tulahuen parasites constitutively expressing E. coli β-galactosidase were maintained in tissue culture as an infection in NIH 3T3 fibroblast cells. Briefly, 2×10^7 T. cruzi trypomastigotes were used to infect 6×10^5 NIH 3T3 cells growing in T75 CELLSTAR tissue culture flasks and cultured at 37° C./5% CO2 until proliferating intracellular parasites lysed host 3T3 cells and were released into the culture medium (typically 6-7 days). During the infection, the tissue culture medium was changed every two days. Number of T. cruzi trypomastigotes present in 1 ml of medium was determined using a haemocytometer.
To determine compound potency on intracellular T. cruzi amastigotes, NIH 3T3 cells were re-suspended in phenol red-free RPMI-1640 medium containing 3% heat-inactivated fetal bovine serum and 100 IU penicillin/100 μg/ml streptomycin, seeded at 1,000 cells/well (40 μl) in white, clear bottom 384-well plates (Greiner Bio-One), and incubated overnight at 37° C./5% CO2. The following day, 100 nl of each compound in DMSO were transferred to individual plate wells by Echo 555 acoustic liquid handling system. After one hour incubation, 1×10^6 of tissue culture-derived T. cruzi trypomastigotes, in 10 μl of phenol red-free RPMI-1640 medium supplemented with 3% heat-inactivated fetal bovine serum and 100 IU penicillin/100 μg/ml streptomycin were added to each well. Plates were then incubated for 6 days at 37° C./5% CO2. Intracellular T. cruzi parasites were quantified by measuring the activity of parasite-expressed β-galactosidase. Ten microliters of a chromogenic β-galactosidase substrate solution (0.6 mM chlorophenol red-β-D-galactopyranoside/0.6% NP-40 in PBS; both reagents from Calbiochem) were added to each well and incubated for 2 h at room temperature. After incubation, absorption was measured at 570 nm on SpectraMax M2 plate reader (Molecular Devices). Measured absorbance values in wells with compounds were divided by the average absorbance value of the plate DMSO controls, and used for calculation of compound EC50 values as described above.

Row | Structure (SMILES) | pIC50 [1] | pIC50 [2]
1 | N#Cc1ncn(CC(=O)N2Cc3ccc(-c4cccnc4C(F)F)cc3C2)n1 [Example 1, 1-(2-(5-(2-(difluoromethyl)pyridin-3-yl)isoindolin-2-yl)-2-oxoethyl)-1H-1,2,4-triazole-3-carbonitrile] | 6.00 to 7.00 | 6.00 to 7.00
2 | N#Cc1ncn(CC(=O)N2Cc3ccc(-c4c(Cl)cncc4C(F)(F)F)cc3C2)n1 [Example 2, 1-(2-(5-(3-chloro-5-(trifluoromethyl)pyridin-4-yl)isoindolin-2-yl)-2-oxoethyl)-1H-1,2,4-triazole-3-carbonitrile] | 6.00 to 7.00 | > 7.00
3 | N#Cc1ncn(CC(=O)N2Cc3ccc(-c4cc(F)ncc4Cl)cc3C2)n1 [Example 3, 1-(2-(5-(5-chloro-2-fluoropyridin-4-yl)isoindolin-2-yl)-2-oxoethyl)-1H-1,2,4-triazole-3-carbonitrile] | > 7.00 | > 7.00
4 | N#Cc1ncn(CC(=O)N2Cc3ccc(-c4cccc(Cl)c4C(F)(F)F)cc3C2)n1 [Example 4, 1-(2-(5-(3-chloro-2-(trifluoromethyl)phenyl)isoindolin-2-yl)-2-oxoethyl)-1H-1,2,4-triazole-3-carbonitrile] | > 7.00 | > 7.00
5 | N#Cc1ncn(CC(=O)N2Cc3ccc(-c4cccnc4OCC(F)(F)F)cc3C2)n1 [Example 5, 1-(2-oxo-2-(5-(2-(2,2,2-trifluoroethoxy)pyridin-3-yl)isoindolin-2-yl)ethyl)-1H-1,2,4-triazole-3-carbonitrile] | 6.00 to 7.00 | 6.00 to 7.00
6 | Cc1ccc(-c2ccc3c(c2)CN(C(=O)Cn2cnc(C#N)n2)C3)c(C(F)(F)F)n1 [Example 6, 1-(2-(5-(6-methyl-2-(trifluoromethyl)pyridin-3-yl)isoindolin-2-yl)-2-oxoethyl)-1H-1,2,4-triazole-3-carbonitrile] | > 7.00 | > 7.00
7 | N#Cc1ncn(CC(=O)N2Cc3ccc(-c4c(C(F)(F)F)ccnc4Cl)cc3C2)n1 [Example 7, 1-(2-(5-(2-chloro-4-(trifluoromethyl)pyridin-3-yl)isoindolin-2-yl)-2-oxoethyl)-1H-1,2,4-triazole-3-carbonitrile] | 6.00 to 7.00 | > 7.00
8 | N#Cc1ncn(CC(=O)N2Cc3ccc(-c4cncc(F)c4C(F)(F)F)cc3C2)n1 [Example 9, 1-(2-(5-(5-fluoro-4-(trifluoromethyl)pyridin-3-yl)isoindolin-2-yl)-2-oxoethyl)-1H-1,2,4-triazole-3-carbonitrile] | 6.00 to 7.00 | 6.00 to 7.00
9 | N#Cc1ncn(CC(=O)N2Cc3ccc(-c4c(F)cc(F)cc4Cl)cc3C2)n1 [Example 10, 1-(2-(5-(2-chloro-4,6-difluorophenyl)isoindolin-2-yl)-2-oxoethyl)-1H-1,2,4-triazole-3-carbonitrile] | > 7.00 | > 7.00
10 | N#Cc1ncn(CC(=O)N2Cc3ccc(-c4ccc(F)cc4N4CCCC4)cc3C2)n1 [Example 11, 1-(2-(5-(4-fluoro-2-(pyrrolidin-1-yl)phenyl)isoindolin-2-yl)-2-oxoethyl)-1H-1,2,4-triazole-3-carbonitrile] | 6.00 to 7.00 | 6.00 to 7.00
11 | N#Cc1ncn(CC(=O)N2Cc3ccc(-c4c(F)cccc4C(F)(F)F)cc3C2)n1 [Example 12, 1-(2-(5-(2-fluoro-6-(trifluoromethyl)phenyl)isoindolin-2-yl)-2-oxoethyl)-1H-1,2,4-triazole-3-carbonitrile] | > 7.00 | > 7.00
12 | Cc1ncccc1-c1ccc2c(c1)CN(C(=O)Cn1cnc(C#N)n1)C2 [Example 13, 1-(2-(5-(2-methylpyridin-3-yl)isoindolin-2-yl)-2-oxoethyl)-1H-1,2,4-triazole-3-carbonitrile] | 6.00 to 7.00 | 6.00 to 7.00
13 | COc1ccc(-c2ccc3c(c2)CN(C(=O)Cn2cnc(C#N)n2)C3)c(C(F)(F)F)n1 [Example 14, 1-(2-(5-(6-methoxy-2-(trifluoromethyl)pyridin-3-yl)isoindolin-2-yl)-2-oxoethyl)-1H-1,2,4-triazole-3-carbonitrile] | 6.00 to 7.00 | > 7.00
14 | N#Cc1ncn(CC(=O)N2Cc3ccc(-c4c(F)ccc(F)c4Cl)cc3C2)n1 [Example 15, 1-(2-(5-(2-chloro-3,6-difluorophenyl)isoindolin-2-yl)-2-oxoethyl)-1H-1,2,4-triazole-3-carbonitrile] | > 7.00 | > 7.00
15 | N#Cc1ncn(CC(=O)N2Cc3ccc(-c4c(F)cncc4C(F)(F)F)cc3C2)n1 [Example 16, 1-(2-(5-(3-fluoro-5-(trifluoromethyl)pyridin-4-yl)isoindolin-2-yl)-2-oxoethyl)-1H-1,2,4-triazole-3-carbonitrile] | 6.00 to 7.00 | > 7.00
16 | N#Cc1ncn(CC(=O)N2Cc3ccc(-c4cccnc4OC(F)(F)F)cc3C2)n1 [Example 17, 1-(2-oxo-2-(5-(2-(trifluoromethoxy)pyridin-3-yl)isoindolin-2-yl)ethyl)-1H-1,2,4-triazole-3-carbonitrile] | 6.00 to 7.00 | 6.00 to 7.00
17 | N#Cc1ncn(CC(=O)N2Cc3ccc(-c4c(Cl)ccnc4C(F)(F)F)cc3C2)n1 [Example 18, 1-(2-(5-(4-chloro-2-(trifluoromethyl)pyridin-3-yl)isoindolin-2-yl)-2-oxoethyl)-1H-1,2,4-triazole-3-carbonitrile] | 6.00 to 7.00 | > 7.00
18 | N#Cc1ncn(CC(=O)N2Cc3ccc(-c4cccnc4CC(F)(F)F)cc3C2)n1 [Example 19, 1-(2-oxo-2-(5-(2-(2,2,2-trifluoroethyl)pyridin-3-yl)isoindolin-2-yl)ethyl)-1H-1,2,4-triazole-3-carbonitrile] | 6.00 to 7.00 | 6.00 to 7.00
19 | N#Cc1ncn(CC(=O)N2Cc3ccc(-c4c(F)ccnc4C(F)(F)F)cc3C2)n1 [Example 20, 1-(2-(5-(4-fluoro-2-(trifluoromethyl)pyridin-3-yl)isoindolin-2-yl)-2-oxoethyl)-1H-1,2,4-triazole-3-carbonitrile] | > 7.00 | > 7.00
20 | N#Cc1ncn(CC(=O)N2Cc3ccc(-c4c(F)ccnc4Cl)cc3C2)n1 [Example 21, 1-(2-(5-(2-chloro-4-fluoropyridin-3-yl)isoindolin-2-yl)-2-oxoethyl)-1H-1,2,4-triazole-3-carbonitrile] | 6.00 to 7.00 | > 7.00
21 | N#Cc1ncn(CC(=O)N2Cc3ccc(-c4c(C(F)(F)F)ccnc4F)cc3C2)n1 [Example 22, 1-(2-(5-(2-fluoro-4-(trifluoromethyl)pyridin-3-yl)isoindolin-2-yl)-2-oxoethyl)-1H-1,2,4-triazole-3-carbonitrile] | 6.00 to 7.00 | > 7.00
22 | N#Cc1ncn(CC(=O)N2Cc3ccc(-c4c(F)cncc4Cl)cc3C2)n1 [Example 23, 1-(2-(5-(3-chloro-5-fluoropyridin-4-yl)isoindolin-2-yl)-2-oxoethyl)-1H-1,2,4-triazole-3-carbonitrile] | > 7.00 | 6.00 to 7.00
23 | N#Cc1ncn(CC(=O)N2Cc3ccc(-c4c(Cl)ccnc4F)cc3C2)n1 [Example 24, 1-(2-(5-(4-chloro-2-fluoropyridin-3-yl)isoindolin-2-yl)-2-oxoethyl)-1H-1,2,4-triazole-3-carbonitrile] | 6.00 to 7.00 | 6.00 to 7.00
24 | Cn1cc(-c2ccc3c(c2)CN(C(=O)Cn2cnc(C#N)n2)C3)c(C(F)(F)F)n1 [Example 25, 1-(2-(5-(1-methyl-3-(trifluoromethyl)-1H-pyrazol-4-yl)isoindolin-2-yl)-2-oxoethyl)-1H-1,2,4-triazole-3-carbonitrile] | 6.00 to 7.00 | 6.00 to 7.00
